Measured values taken from the supplement of paper PMC11061612.

How the values were obtained:
Assay in all cases: combination Emax (second highest fraction inhibited in the dose matrix, 72 h); higher = more inhibition; extreme values may be limits of the assay
[1] = tested on: NCI-N87 (Gastric Carcinoma)
Method in brief: (§1)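 Cell lines in DMEM/F12 or RPMI with 10% FBS were plated in 1536-well plates, held 24 hours at 37°C, 5% CO2, then given two-drug dose matrices for 72 hours (DMSO typically 0.2%). Viability was read by CellTiter-Glo 2.0 luminescence and scaled as inhibition from 0 (vehicle wells) to 1 (blank wells). Combination Emax is the second-highest inhibition in the matrix; Bliss excess is observed combination effect minus expected EA + EB − EA·EB, EA and EB being single-agent effects.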

[2] = tested on: NCI-H1573 (Lung Adenocarcinoma)
Method in brief: as §1

[3] = tested on: ASH-3 (Thyroid Gland Carcinoma)
Method in brief: as §1

[4] = tested on: DG-75 (Burkitt's Lymphoma)
Method in brief: as §1

U-87-MG (Glioblastoma) = tested on: U-87-MG (Glioblastoma)
Method in brief: as §1

GOTO (Neuroblastoma) = tested on: GOTO (Neuroblastoma)
Method in brief: as §1

NH-12 (Neuroblastoma) = tested on: NH-12 (Neuroblastoma)
Method in brief: as §1

[5] = tested on: NCI-H2347 (Lung Adenocarcinoma)
Method in brief: as §1

EW-3 (Ewing's Sarcoma) = tested on: EW-3 (Ewing's Sarcoma)
Method in brief: as §1

[6] = tested on: TGBC11TKB (Gastric Carcinoma)
Method in brief: as §1

[7] = tested on: HSC-2 (Oral Cavity Carcinoma)
Method in brief: as §1

[8] = tested on: HC-1 (Other Blood Carcinomas)
Method in brief: as §1

[9] = tested on: KU-19-19 (Bladder Carcinoma)
Method in brief: as §1

[10] = tested on: NCI-H513 (Other Solid Carcinomas)
Method in brief: as §1

[11] = tested on: JHH-7 (Hepatocellular Carcinoma)
Method in brief: as §1

[12] = tested on: LOU-NH91 (Squamous Cell Lung Carcinoma)
Method in brief: as §1

[13] = tested on: KYSE-150 (Esophageal Squamous Cell Carcinoma)
Method in brief: as §1

[14] = tested on: NCI-H322M (Lung Adenocarcinoma)
Method in brief: as §1

[15] = tested on: LC4-1 (B-Lymphoblastic Leukemia)
Method in brief: as §1

[16] = tested on: EMC-BAC-2 (Non-Small Cell Lung Carcinoma)
Method in brief: as §1

Structure (SMILES) | combination Emax [1] | combination Emax [2] | combination Emax [3] | combination Emax [4] | combination Emax (U-87-MG (Glioblastoma)) | combination Emax (GOTO (Neuroblastoma)) | combination Emax (NH-12 (Neuroblastoma)) | combination Emax [5] | combination Emax (EW-3 (Ewing's Sarcoma)) | combination Emax [6] | combination Emax [7] | combination Emax [8] | combination Emax [9] | combination Emax [10] | combination Emax [11] | combination Emax [12] | combination Emax [13] | combination Emax [14] | combination Emax [15] | combination Emax [16]
CN(C)CCCOc1ccc(-c2ccc3ncc4c(c3c2)n(C2CCOCC2)c(=O)n4C)cn1 [AZD0156] + O=C(c1cc(Cc2n[nH]c(=O)c3ccccc23)ccc1F)N1CCN(C(=O)C2CC2)CC1 [Olaparib] (first compound max 3 µM, partner max 3 µM) | 0.327 | 0.18 | 0.194 | 0.481 | 0.297 | 0.306 | 0.177 | 0.268 | 0.708 | 0.131 | 0.386 | 0.527 | 0.221 | 0.194 | 0.339 | 0.209 | 0.295 | 0.357 | 0.673 | 0.486
Cc1c2c(nn1C)CSCc1cc(n(C)n1)CSc1cc(c3ccccc3c1)OCCCc1c(C(=O)O)n(C)c3c-2c(Cl)ccc13 [AZD5991] + CC1(C)CCC(CN2CCN(c3ccc(C(=O)NS(=O)(=O)c4ccc(NCC5CCOCC5)c([N+](=O)[O-])c4)c(Oc4cnc5[nH]ccc5c4)c3)CC2)=C(c2ccc(Cl)cc2)C1 [Venetoclax] (first compound max 1 µM, 7x7, partner max 1 µM) | 0.23 | 0.302 | 0.325 | 0.144 | 0.174 | 0.795 | 0.892 | 0.138 | 0.953 | 0.792 | 0.965 | 0.762 | 0.588 | 0.156 | 0.221 | 0.221 | 0.17 | 0.155 | 1 | 0.694
CN(CCO)CC[C@H](CSc1ccccc1)Nc1ccc(S(=O)(=O)NC(=O)c2ccc(N3CCC([C@@H](O)c4ccccc4-c4ccc(Cl)cc4)CC3)cc2)cc1S(=O)(=O)C(F)(F)F [AZD4320] + C1CN(CCC1(C(=O)N[C@@H](CCO)C2=CC=C(C=C2)Cl)N)C3=NC=NC4=C3C=CN4 [Capivasertib] (first compound max 1 µM, 7x7, partner max 3 µM) | 0.571 | 0.575 | 0.59 | 0.266 | 0.311 | 0.378 | 0.886 | 0.362 | 0.918 | 0.182 | 0.362 | 0.616 | 0.174 | 0.122 | 0.391 | 0.494 | 0.347 | 0.0734 | 1 | 0.301
COc1nnc2ccc(N3CCC(c4ccc(OCCN5CCN(C)C(=O)[C@H]5C)cc4)CC3)nn12 [AZD5153] + Cc1c2c(nn1C)CSCc1cc(n(C)n1)CSc1cc(c3ccccc3c1)OCCCc1c(C(=O)O)n(C)c3c-2c(Cl)ccc13 [AZD5991] (first compound max 1 µM, 7x7, partner max 1 µM) | 0.551 | 0.673 | 0.88 | 0.876 | 0.559 | 0.919 | 0.672 | 0.39 | 0.908 | 0.789 | 0.963 | 0.753 | 0.775 | 0.423 | 0.291 | 0.705 | 0.582 | 0.539 | 1 | 0.886
COc1nnc2ccc(N3CCC(c4ccc(OCCN5CCN(C)C(=O)[C@H]5C)cc4)CC3)nn12 [AZD5153] + CCN(CCO)CCCOc1ccc2c(Nc3cc(CC(=O)Nc4cccc(F)c4)[nH]n3)ncnc2c1 [AZD2811] (first compound max 1 µM, 7x7, partner max 1 µM) | 0.547 | 0.412 | 0.78 | 0.892 | 0.603 | 0.858 | 0.739 | 0.385 | 0.626 | 0.311 | 0.662 | 0.572 | 0.665 | 0.375 | 0.361 | 0.743 | 0.688 | 0.507 | 0.963 | 0.738
CC(=O)c1c(C)c2cnc(Nc3ccc(N4CCNCC4)cn3)nc2n(C2CCCC2)c1=O [Palbociclib] + Cc1c2c(nn1C)CSCc1cc(n(C)n1)CSc1cc(c3ccccc3c1)OCCCc1c(C(=O)O)n(C)c3c-2c(Cl)ccc13 [AZD5991] (first compound max 10 µM, 7x7, partner max 1 µM) | 0.417 | 0.434 | 0.398 | 0.717 | 0.29 | 0.802 | 0.478 | 0.148 | 0.772 | 0.355 | 0.696 | 0.654 | 0.435 | 0.171 | 0.203 | 0.35 | 0.585 | 0.501 | 0.937 | 0.643
CN(CCO)CC[C@H](CSc1ccccc1)Nc1ccc(S(=O)(=O)NC(=O)c2ccc(N3CCC([C@@H](O)c4ccccc4-c4ccc(Cl)cc4)CC3)cc2)cc1S(=O)(=O)C(F)(F)F [AZD4320] + C[C@@H](Nc1cc(F)cc(F)c1)c1cc(C(=O)N(C)C)cc2c(=O)cc(N3CCOCC3)oc12 [AZD8186] (first compound max 1 µM, 7x7, partner max 3 µM) | 0.638 | 0.289 | 0.682 | 0.286 | 0.527 | 0.831 | 0.998 | 0.698 | 0.898 | 0.338 | 0.897 | 0.965 | 0.315 | 0.342 | 0.368 | 0.768 | 0.298 | 0.506 | 1 | 0.383
CC1(C)CCC(CN2CCN(c3ccc(C(=O)NS(=O)(=O)c4ccc(NCC5CCOCC5)c([N+](=O)[O-])c4)c(Oc4cnc5[nH]ccc5c4)c3)CC2)=C(c2ccc(Cl)cc2)C1 [Venetoclax] + C[C@@H]1COCCN1C2=NC(=NC(=C2)C3(CC3)[S@](=N)(=O)C)C4=C5C=CNC5=NC=C4 [AZD6738] (first compound max 1 µM, 7x7, partner max 10 µM) | 0.736 | 0.579 | 0.57 | 0.781 | 0.596 | 0.966 | 0.968 | 0.402 | 0.844 | 0.901 | 0.824 | 0.864 | 0.745 | 0.356 | 0.285 | 0.411 | 0.628 | 0.894 | 1 | 0.612
C[C@@H](c1ccc2nccn2c1)n1nnc2ncc(-c3cnn(C)c3)nc21 [Savolitinib] + Cc1c2c(nn1C)CSCc1cc(n(C)n1)CSc1cc(c3ccccc3c1)OCCCc1c(C(=O)O)n(C)c3c-2c(Cl)ccc13 [AZD5991] (first compound max 1 µM, 7x7, partner max 1 µM) | 0.22 | 0.351 | 0.299 | 0.11 | 0.288 | 0.804 | 0.202 | 0.107 | 0.558 | 0.507 | 0.711 | 0.216 | 0.204 | 0.0607 | 0.205 | 0.199 | 0.219 | 0.086 | 0.939 | 0.45
C[C@@H](c1ccc2nccn2c1)n1nnc2ncc(-c3cnn(C)c3)nc21 [Savolitinib] + CC1(C)CCC(CN2CCN(c3ccc(C(=O)NS(=O)(=O)c4ccc(NCC5CCOCC5)c([N+](=O)[O-])c4)c(Oc4cnc5[nH]ccc5c4)c3)CC2)=C(c2ccc(Cl)cc2)C1 [Venetoclax] (first compound max 1 µM, 7x7, partner max 1 µM) | 0.22 | 0.203 | 0.16 | 0.16 | 0.252 | 0.266 | 0.406 | 0.116 | 0.379 | 0.0823 | 0.186 | 0.173 | 0.132 | 0.0676 | 0.114 | 0.135 | 0.189 | 0.0582 | 1 | 0.0698
NC1(C(=O)N[C@@H](CCO)c2ccc(Cl)cc2)CCN(c2ncnc3[nH]ccc23)CC1 [Capivasertib] + Cn1cnc2c(F)c(Nc3ccc(Br)cc3Cl)c(C(=O)NOCCO)cc21 [Selumetinib] (first compound max 10 µM, 7x7, partner max 10 µM) | 0.755 | 0.495 | 0.773 | 0.398 | 0.685 | 0.469 | 0.585 | 0.423 | 0.24 | 0.462 | 0.721 | 0.601 | 0.921 | 0.409 | 0.418 | 0.487 | 0.743 | 0.582 | 0.575 | 0.622
CC(=O)c1c(C)c2cnc(Nc3ccc(N4CCNCC4)cn3)nc2n(C2CCCC2)c1=O [Palbociclib] + CC1(C)CCC(CN2CCN(c3ccc(C(=O)NS(=O)(=O)c4ccc(NCC5CCOCC5)c([N+](=O)[O-])c4)c(Oc4cnc5[nH]ccc5c4)c3)CC2)=C(c2ccc(Cl)cc2)C1 [Venetoclax] (first compound max 10 µM, 7x7, partner max 1 µM) | 0.417 | 0.284 | 0.283 | 0.705 | 0.29 | 0.802 | 0.592 | 0.14 | 0.599 | 0.142 | 0.245 | 0.611 | 0.319 | 0.0783 | 0.132 | 0.145 | 0.455 | 0.492 | 1 | 0.243
